Experimental findings from patent US8222278B2, “Treatment of attention-deficit/hyperactivity disorder” (Abbott Laboratories, priority 2008, dated 2012) are described below.

Data set [1] can be described thus: Steady state pharmacokinetics of ABT-894 after multiple oral doses. The class given is in vivo, human. To be noted: for Cave / Cmin / Cmax / AUC: multiple doses, steady state; for Tmax: QD or BID. The procedure:
Steady state pharmacokinetic parameters of ABT-894 were determined in randomized, double-blind, placebo-controlled, parallel-design or crossover-design studies conducted with ABT-894. In these studies ABT-894 or matching placebo was administered orally either once daily (QD) or twice daily (BID) to subjects and serial blood samples were collected in order to determine ABT-894 plasma concentrations and pharmacokinetic parameters.
As used herein, Cmax refers to peak plasma concentration of a therapeutic agent, in this case ABT-894, under steady state conditions.
As used herein, Cave refers to average plasma concentration of a therapeutic agent. in this case ABT-894, under steady state conditions.
As used herein, Cmin refers to the minimum plasma concentration of a therapeutic agent, in this case ABT-894, under steady state conditions.
As used herein. Tmax refers to the time required to reach peak concentration.
As used herein, AUC12 refers to the area under the curve determined for 12 hours.
As used herein. AUC24 refers to the area under the curve determined for 24 hours.

Data set [2] deals with adults with ADHD. Kind of data set: Study A: patient-reported health outcomes (AAQoL, WPAI). In kind it is in vivo, human. The arrangement: WPAI Absenteeism (employed), Mean Diff. / WPAI Impaired Work Effectiveness (employed), Mean Diff. / AAQoL Total, Mean Diff. / WPAI Overall Activity Impairment (all), Mean Diff. / WPAI Overall Work Impairment (employed), Mean Diff.: scale not given here. The procedure: A clinical study (Study A) was conducted to assess the safety and efficacy of ABT-894 compared to placebo in adults with ADHD and to evaluate the dose-response relationship.
Subjects in each dose group received, in random order, both ABT-894 and placebo according to a 2×2 crossover design. Each treatment period was 4 weeks separated by a 2-week washout period.
Secondary efficacy endpoints included the CAARS:Inv Inattentive and Hyperactive/Impulsive Subscale Scores, Clinical Global Impression-ADHD-Severity Scale (CGI-ADHD-S). Adult ADHD Investigator Symptom Report Scale (AISRS), including total and subscales, and the Self-rated Connors Adult ADHD Rating Scale (CAARS-Self). Health outcomes including the Adult ADHD Quality of Life Scale (AAQoL) and Work Productivity and Activity Impairment Questionnaire (WPAI) were used to evaluate the validity of these scales in this study population for use in subsequent clinical trials.

The subject of data set [3] is adults with ADHD. To be noted: human, in vivo, 4 weeks.
Method: During each visit, blood pressure, heart rate, weight, medication accountability and tolerability, and adverse effects were assessed.
The safety dataset consisted of all subjects who took at least one dose of study drug. The reasons for discontinuation and the treatment-emergent adverse events were summarized by the treatment under which the discontinuation or event was reported.
Treatment-emergent adverse events were those that began or worsened following the first dose of study drug in Period 1. Adverse event monitoring was conducted at each study visit and until 30 days following discontinuation of study drug. Other routine safety assessments included vital signs, electrocardiograms, physical examinations, brief neurological examinations and laboratory tests.

Where two headings read alike, the source gives them in different places.

Take `Clc1cc(N2C[C@@H]3CN[C@@H]3C2)cnc1Cl` [ABT-894, 3-(5,6-Dichloro-pyridin-3-yl)-1S,5S-3,6-diazabicyclo[3.2.0]heptane]: the Cave entry in data set [1] (2 mg QD, plasma) was “about 2 ng/mL”; in data set [1] (4 mg BID, plasma), 6 to 10 ng/mL. Besides, the Cmin result in data set [1] (2 mg QD, plasma) was “about 0.3 ng/mL”; in data set [1] (4 mg BID, plasma) it was 2 to 4 ng/mL. The Cmax in data set [1] (human, oral, 2 mg QD, plasma) is roughly 5 ng/mL; in data set [1] (human, oral, 4 mg BID, plasma), 11 to 15 ng/mL. Also, the AUC in data set [1] (human, oral, 2 mg QD, plasma, read-out: AUC24) is roughly 46 ng·h/mL; in data set [1] (human, oral, 4 mg BID, plasma, read-out: AUC12) it was 72 to 114 ng·h/mL. The Tmax lay within 2 to 4 h in data set [1] (human, plasma, po, read-out: Tmax) and 2 to 3 h in data set [1] (oral). Moreover, the “Measures of quality of life relative to placebo” value in data set [2] (ABT-894 2 mg QD) was “improved measures of quality of life relative to placebo”. Further, the “WPAI Impaired Work Effectiveness (employed), Mean Diff.” value in data set [2] (ABT-894 4 mg BID, N 22) is reported as −0.104. The “WPAI Overall Work Impairment (employed), Mean Diff.” value in data set [2] (ABT-894 4 mg BID, N 22) is reported as −0.093. Besides, the “WPAI Overall Activity Impairment (all), Mean Diff.” value in data set [2] (ABT-894 4 mg BID, N 43) is listed as −0.108. The “Influenza-like illness, % of subjects” value in data set [3] was “(0) %”. The “Influenza-like illness, number of subjects” value in data set [3] came to 0 subjects.

Usually Cmax stands for the maximum level reached in the sampled fluid or tissue. The Tmax is the time at which the peak concentration occurs.
